Test results taken from US9221795B2, “Phosphatidylinositol 3-kinase inhibitors” (Gilead Sciences, Inc., priority 2013, dated 2015).

These molecules were tested against PI3Kδ (Homo sapiens (Human), UniProt O00329) (assay: Enzymatic activity of PI3K isoforms, TR-FRET assay (PI3Kδ)). Conditions: 2× Km ATP, geometric mean if more than one value.
Format: biochemical
Description: Enzymatic activity of the class I PI3K isoforms in the presence of the compounds of Table 1 and Compounds X, Y and Z was measured using a time-resolved fluorescence resonance energy transfer (TR-FRET) assay. The TR-FRET assay was used to monitor formation of the product 3,4,5-inositol triphosphate molecule (PIP3) as it competed with fluorescently labeled PIP3 for binding to the GRP-1 pleckstrin homology domain protein. An increase in […] product results in a decrease in TR-FRET signal as the labeled fluorophore is displaced from the GRP-1 protein binding site.
Class I PI3K isoforms were expressed and purified as heterodimeric recombinant proteins. All assay reagents and buffers for the TR-FRET assay were purchased from Millipore. PI3K isoforms were assayed under initial rate conditions in the presence of 25 mM Hepes (pH 7.4), and 2× Km ATP (75-500 μM), 2 μM PIP2, 5% glycerol, 5 mM MgCl2, 50 mM NaCl, 0.05% (v/v) Chaps, 1 mM dithiothreitol, 1% (v/v) DMSO at the following concentrations for each isoforms: PI3Kα, PI3Kβ, and PI3Kδ between 25 and 50 pM, and PI3Kγ at 2 nM. After an assay reaction time of 30 minutes at 25° C., reactions were terminated with a final concentration of 10 mM EDTA, 10 nM labeled-PIP3, and 35 nM Europium labeled GRP-1 detector protein before reading TR-FRET on an Envision plate reader (Ex: 340 nm; Em: 615/665 nm; […] delay and 500 μs read window).
Data were normalized based on positive ([…] wortmanin) and negative (DMSO) controls. α, β, δ, and γ IC50 values were calculated from the fit of the dose-response curves to a four-parameter equation. All IC50 values represent geometric mean values if more than one value was obtained. IC50 values were reported in units of nM.

Sequence of PI3Kδ (O00329 whole entry, canonical isoform): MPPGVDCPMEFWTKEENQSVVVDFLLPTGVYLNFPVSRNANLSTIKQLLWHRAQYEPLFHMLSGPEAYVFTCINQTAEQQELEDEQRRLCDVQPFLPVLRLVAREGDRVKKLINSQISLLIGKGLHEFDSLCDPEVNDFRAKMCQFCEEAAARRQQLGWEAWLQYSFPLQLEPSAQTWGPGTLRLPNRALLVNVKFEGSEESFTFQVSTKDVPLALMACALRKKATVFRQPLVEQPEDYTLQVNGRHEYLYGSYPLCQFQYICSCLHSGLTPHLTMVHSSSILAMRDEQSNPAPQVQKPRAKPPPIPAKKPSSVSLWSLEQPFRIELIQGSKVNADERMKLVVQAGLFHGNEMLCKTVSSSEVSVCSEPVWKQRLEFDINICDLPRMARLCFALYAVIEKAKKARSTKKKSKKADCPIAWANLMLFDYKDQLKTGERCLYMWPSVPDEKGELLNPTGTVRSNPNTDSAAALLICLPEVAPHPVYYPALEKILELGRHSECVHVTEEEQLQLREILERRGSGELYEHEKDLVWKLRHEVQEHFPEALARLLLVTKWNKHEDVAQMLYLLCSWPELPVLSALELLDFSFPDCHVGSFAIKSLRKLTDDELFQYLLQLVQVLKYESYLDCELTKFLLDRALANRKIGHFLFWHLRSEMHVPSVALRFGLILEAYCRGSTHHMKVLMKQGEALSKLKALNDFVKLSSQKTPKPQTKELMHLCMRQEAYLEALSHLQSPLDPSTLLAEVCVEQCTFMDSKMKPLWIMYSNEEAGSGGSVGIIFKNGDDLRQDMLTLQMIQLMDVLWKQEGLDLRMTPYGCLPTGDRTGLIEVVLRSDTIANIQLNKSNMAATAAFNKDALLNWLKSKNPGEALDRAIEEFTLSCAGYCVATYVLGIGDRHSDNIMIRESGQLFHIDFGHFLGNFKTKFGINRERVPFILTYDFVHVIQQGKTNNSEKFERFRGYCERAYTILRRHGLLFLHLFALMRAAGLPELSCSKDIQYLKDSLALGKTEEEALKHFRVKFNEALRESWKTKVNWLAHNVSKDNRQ
Sequence of PI3Kδ (P27986 whole entry partner, canonical isoform): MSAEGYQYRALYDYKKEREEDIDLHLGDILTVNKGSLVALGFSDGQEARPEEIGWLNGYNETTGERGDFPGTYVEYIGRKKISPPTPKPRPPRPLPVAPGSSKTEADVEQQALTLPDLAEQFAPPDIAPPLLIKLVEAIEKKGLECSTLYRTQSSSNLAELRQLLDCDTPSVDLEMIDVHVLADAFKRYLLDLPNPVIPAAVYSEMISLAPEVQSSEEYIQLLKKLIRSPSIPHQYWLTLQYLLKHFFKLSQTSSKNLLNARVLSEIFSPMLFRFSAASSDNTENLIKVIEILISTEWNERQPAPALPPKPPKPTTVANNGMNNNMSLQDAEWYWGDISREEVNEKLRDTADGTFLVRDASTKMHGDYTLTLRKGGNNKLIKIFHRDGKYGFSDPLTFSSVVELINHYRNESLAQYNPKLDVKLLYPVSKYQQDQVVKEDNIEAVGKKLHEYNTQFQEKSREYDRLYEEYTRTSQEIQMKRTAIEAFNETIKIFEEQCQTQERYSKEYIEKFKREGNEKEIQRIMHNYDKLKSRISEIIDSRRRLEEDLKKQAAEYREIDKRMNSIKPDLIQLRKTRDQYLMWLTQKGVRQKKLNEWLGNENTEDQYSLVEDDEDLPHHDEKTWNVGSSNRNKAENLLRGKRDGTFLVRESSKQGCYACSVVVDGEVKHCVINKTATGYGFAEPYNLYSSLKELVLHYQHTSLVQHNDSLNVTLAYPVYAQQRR

IC50 [nM]	SMILES
75	Cc1cncc(-n2c([C@H](C)Nc3nc(N)nc(N)c3C#N)nc3cccc(Cl)c3c2=O)c1C (atropisomer, axis not shown) [Compound 77, (S)-2,4-diamino-6-((1-(5-chloro-3-(4,5-dimethylpyridin-3-yl)-4-oxo-3,4-dihydroquinazolin-2-yl)ethyl)amino)pyrimidine-5-carbonitrile]
3	Cc1c(F)cncc1-n1c([C@@H](Nc2nc(N)nc(N)c2C#N)C2CC2)nc2cccc(Cl)c2c1=O (atropisomer, axis not shown) [Compound 70, (S)-2,4-diamino-6-(((5-chloro-3-(5-fluoro-4-methylpyridin-3-yl)-4-oxo-3,4-dihydroquinazolin-2-yl)(cyclopropyl)methyl)amino)pyrimidine-5-carbonitrile]
380	N#Cc1ccc(F)c2nc([C@@H](Nc3nc(N)nc(N)c3Cl)C3CC3)n(-c3cccnc3)c(=O)c12 [Compound 59, (S)-2-(cyclopropyl((2,6-diamino-5-chloropyrimidin-4-yl)amino)methyl)-8-fluoro-4-oxo-3-(pyridin-3-yl)-3,4-dihydroquinazoline-5-carbonitrile]
9	CC[C@@H](Nc1nc(N)nc(N)c1C#N)c1nc2c(F)ccc(Cl)c2c(=O)n1-c1cccnc1 [Compound 111, (R)-2,4-Diamino-6-((1-(5-chloro-8-fluoro-4-oxo-3-(pyridin-3-yl)-3,4-dihydroquinazolin-2-yl)propyl)amino)pyrimidine-5-carbonitrile]
60	CC[C@H](Nc1nc(N)nc(N)c1C#N)c1nc2c(C#N)cc(F)cc2c(=O)n1-c1cncc(F)c1 [Compound 55, (S)-2-(1-((2,6-Diamino-5-cyanopyrimidin-4-yl)amino)propyl)-6-fluoro-3-(5-fluoropyridin-3-yl)-4-oxo-3,4-dihydroquinazoline-8-carbonitrile]
30	N#Cc1c(N)nc(N)nc1N[C@H](c1nc2c(C#N)cc(F)cc2c(=O)n1-c1cncc(F)c1)C1CC1 [Compound 56, (S)-2-(Cyclopropyl((2,6-diamino-5-cyanopyrimidin-4-yl)amino)methyl)-6-fluoro-3-(5-fluoropyridin-3-yl)-4-oxo-3,4-dihydroquinazoline-8-carbonitrile]
2	Cc1ccncc1-n1c([C@H](C)Nc2nc(N)nc(N)c2C#N)nc2cccc(C(F)(F)F)c2c1=O (atropisomer, axis not shown) [Compound 79, (S)-2,4-Diamino-6-((1-(3-(4-methylpyridin-3-yl)-4-oxo-5-(trifluoromethyl)-3,4-dihydroquinazolin-2-yl)ethyl)amino)pyrimidine-5-carbonitrile]
2	C[C@H](Nc1nc(N)nc(N)c1C(N)=O)c1nc2cccc(Cl)c2c(=O)n1-c1cccnc1 [Compound 50, (S)-2,4-Diamino-6-((1-(5-chloro-4-oxo-3-(pyridin-3-yl)-3,4-dihydroquinazolin-2-yl)ethyl)amino)pyrimidine-5-carboxamide]
34	Cc1ncc(F)cc1-n1c([C@H](C)Nc2nc(N)nc(N)c2C#N)nc2cccc(Cl)c2c1=O (atropisomer, axis not shown) [Compound 44, (S)-2,4-diamino-6-(1-(5-chloro-3-(5-fluoro-2-methylpyridin-3-yl)-4-oxo-3,4-dihydroquinazolin-2-yl)ethylamino)pyrimidine-5-carbonitrile]
14	CC(C)C[C@H](Nc1nc(N)nc(N)c1C#N)c1nc2cccc(Cl)c2c(=O)n1-c1cccnc1 [Compound 58, (S)-2,4-Diamino-6-((1-(5-chloro-4-oxo-3-(pyridin-3-yl)-3,4-dihydroquinazolin-2-yl)-3-methylbutyl)amino)pyrimidine-5-carbonitrile]

SMILES	IC50 [nM]
C[C@H](Nc1nc(N)nc(N)c1Cl)c1nc2cccc(F)c2c(=O)n1-c1cccnc1 [Compound 52, (S)-2-(1-((2,6-Diamino-5-chloropyrimidin-4-yl)amino)ethyl)-5-fluoro-3-(pyridin-3-yl)quinazolin-4(3H)-one]	63
